# In patent publication US20070275368A1, “Posh Associated Kinases And Related Methods” (PROTEOLOGICS, LTD., priority 2003, published 2007):
# Legend:
# [1] = system: T1, Bacterially expressed recombinant maltose-binding-protein (MBP)-hPOSH
# T1 sequence: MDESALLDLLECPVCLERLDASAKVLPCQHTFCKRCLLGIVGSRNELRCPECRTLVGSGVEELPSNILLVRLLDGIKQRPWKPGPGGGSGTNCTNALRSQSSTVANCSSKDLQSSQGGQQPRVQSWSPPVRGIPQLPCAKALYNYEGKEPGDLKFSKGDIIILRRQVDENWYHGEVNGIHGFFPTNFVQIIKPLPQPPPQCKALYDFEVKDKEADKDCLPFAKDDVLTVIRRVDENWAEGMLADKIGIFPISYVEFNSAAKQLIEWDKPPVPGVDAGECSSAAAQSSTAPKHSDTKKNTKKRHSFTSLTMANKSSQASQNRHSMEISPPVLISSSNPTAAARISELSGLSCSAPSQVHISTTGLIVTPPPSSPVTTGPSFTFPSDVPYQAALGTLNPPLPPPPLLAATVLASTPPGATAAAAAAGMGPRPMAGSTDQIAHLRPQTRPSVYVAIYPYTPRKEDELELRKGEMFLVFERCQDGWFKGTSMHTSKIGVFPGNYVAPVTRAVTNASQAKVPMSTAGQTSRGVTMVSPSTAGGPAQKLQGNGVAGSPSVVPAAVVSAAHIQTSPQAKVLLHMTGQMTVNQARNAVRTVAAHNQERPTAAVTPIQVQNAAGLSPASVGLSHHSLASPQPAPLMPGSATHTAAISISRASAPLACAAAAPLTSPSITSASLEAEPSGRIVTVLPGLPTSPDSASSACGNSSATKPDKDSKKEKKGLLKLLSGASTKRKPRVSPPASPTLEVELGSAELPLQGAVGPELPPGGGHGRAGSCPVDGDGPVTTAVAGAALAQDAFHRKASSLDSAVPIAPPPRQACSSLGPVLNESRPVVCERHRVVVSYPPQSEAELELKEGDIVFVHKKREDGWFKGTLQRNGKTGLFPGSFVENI
# HIV-1 [2] = settings: H89 50 μM, HeLa SS6 cells transfected with pNLenv-1, 20 minutes after shift to 37° C.
# Protocol: HeLa SS6 cells were transfected with pNLenv-1PTAP or pNLenv-1ATAA (L-domain mutant). Eighteen hours post-transfection, cells were transferred to 20° C. for two hours in order to inhibit transport of viral particles from the trans-Golgi (TGN) to the plasma membrane (PM). Subsequently, the PKA inhibitor, H89 (50 μM) (Biosource, Cat. No. PHZ1114) or DMSO were added to the cells and dishes were transferred to 37° C. to initiate transport from the TGN to the PM. Reverse transcriptase activity was assayed from virus-like-particles collected from cell supernatant twenty minutes later.
# For transfections, HeLa SS6 cells were grown to 100% confluency in DMEM containing 10% FCS without antibiotics. Cells were then transfected with HIV-1NLenv1 (2 μg per 6-well) (Schubert et al., 1995).
# Virus and virus-like particle (VLP) release by reverse transcriptase activity was determined one day after transfection with the pro-viral DNA as previously described (Adachi et al., 1986; Fukumori et al., 2000; Lenardo et al., 2002). The culture medium of virus-expressing cells was collected and centrifuged at 500×g for 10 minutes. The resulting supernatant was passed through a 0.45 μm-pore filter and the filtrate was centrifuged at 14,000×g for 2 hours at 4° C. […]
# HIV-1 [3] = settings: Cartier et al., 2003; cited from earlier work
Molecule,phosphorylation of hPOSH (immunoblot with PKA-substrate phospho-specific antibody) [1],inhibition of RT activity of virus-like-particles collected from cell supernatant (HIV-1 [2]),block of HIV-1 release from cells (HIV-1 [3])
PKA catalytic subunit (PKAc),POSH is phosphorylated by PKA,,
"O=S(=O)(NCCNCC=Cc1ccc(Br)cc1)c1cccc2cnccc12 [H89, N-[2-((Pbromocinnamyl)amino)ethyl]isoquinolinesulfonamide]",,complete inhibition,able to block HIV-1 release from cells
